Reference: patent publication US6916906B1, “Polypeptides implicated in the expression of resistance to glycopeptides, in particular in gram-positive bacteria, nucleotide sequence coding for these polypeptides and use for diagnosis” (priority 1990, dated 2005)

How the values were obtained:
[1] = system: strain with a high level of resistance, in particular Gram-positive cocci; assay: MIC towards strains with a high level of resistance; type: cell-based
[2] = system: strains with low-level resistance; assay: MIC towards strains with low-level resistance; type: cell-based
E. faecalis JH2-2 = assay: MIC after inactivation of vanS by insertion in plasmid pAT80; type: cell-based, Enterococcus faecalis; conditions: inactivation of vanS in pAT80, compared with pAT80
Text: The restriction fragments of pIP816 (Tra^−, Mob^+, Vm^r) were cloned in derivatives of the vector pAT29 which constitutes a shuttle vector between the Gram-positive and Gram-negative bacteria (oriR pAMβ1, oriR pUC, oriT RK2, spc, lacZ) (Trieu-Cuot et al., 1990, Nucleic Acids Res. 18:4296). This vector was constructed by the inventors and used to transform the strain E. coli JM103 ((lac-proAB), supE, thi, strA, sbcB15, endA, hspR4, F traD36, proAB, LacI^q, lacZ M15) (Messing et al., 1983, Methods Ezymol. 101:20-78). The plasmid DNA was prepared by an alkaline lysis protocol on a small scale (Sambrook et al., 1982, Molecular cloning, a laboratory manual. Cold Spring Harbor Laboratory, Cold Spring Harbor N.Y.) and introduced by electroporation (Cruz-Rodz A. L. et al., 1990, Mol. Gen. Genet. 224: 152-154) in E. faecalis JH2-2 (Fus^R, Rif^R) (Jacob A. E. et al., 1974, J. Bacteriol. 117: 360-372), by using a Gene Pulser apparatus (Bio-Rad Laboratories, Richmond, Calif.). The restriction profiles of the purified plasmids from E. faecalis and E. coli were compared in order to detect possible rearrangements of DNA.
The cultures were grown in brain-heart broth (BHI—Brain Heart Infusion Broth) or on agar at 37° C. […]

BM4175 = assay: Minimal inhibitory concentration of vancomycin for BM4175 (vanC inactivated by insertion); type: cell-based; conditions: Enterococcus gallinarum; BM4175, pAT217 integrated into vanC
Protocol: (§1) The cultures were grown in brain-heart broth (BHI—Brain Heart Infusion Broth) or on agar at 37° C. The method of Steers et al (Antibiot. Chemother. Basel. 9: 307-311) was used to determine the minimal inhibitory concentrations (MICs) of the antibiotics on a Mueller-Hinton gelose agar medium.
(§2) In order to evaluate the contribution of vanC to resistance to vancomycin in E. gallinarum BM4174, the vanC gene was inactivated by insertion. […] The resulting pAT217 plasmid was introduced into BM4174 by electroporation (Cruz-Rodz et al., 1990, Mol. Gen. Genet. 224:152-154) and the clones supposed to result from a homologous recombination leading to the integration of pAT217 into vanC were selected on erythromycin. The clone BM4175 was compared with BM4174 by Southern hybridization using the probe C and aphA-3 specific for pAT114. The two probes hybridized with the EcoRI fragment of 8.6 kb from BM4175.

E. gallinarum BM4174 = assay: Minimal inhibitory concentration of vancomycin for BM4174; type: cell-based; conditions: Enterococcus gallinarum, read-out: minimal inhibitory concentration
Protocol: as §1, §2

teicoplanin
minimal inhibitory concentrations (MIC) ([1]; strains with a high level of resistance (definition)): > 8 µg/mL
sensitivity of the strains [2]: apparently sensitive

CN[C@H](CC(C)C)C(=O)N[C@H]1C(=O)N[C@@H](CC(N)=O)C(=O)N[C@H]2C(=O)N[C@H]3C(=O)N[C@H](C(=O)N[C@H](C(=O)O)c4cc(O)cc(O)c4-c4cc3ccc4O)[C@H](O)c3ccc(c(Cl)c3)Oc3cc2cc(c3O[C@@H]2O[C@H](CO)[C@@H](O)[C@H](O)[C@H]2O[C@H]2C[C@](C)(N)[C@H](O)[C@H](C)O2)Oc2ccc(cc2Cl)[C@H]1O [vancomycin]
change of minimal inhibitory concentration (MIC) (E. faecalis JH2-2): remains unchanged
MIC ([1]; read-out: minimal inhibitory concentrations (MIC)): > 32 µg/mL
MIC (BM4175): 2 µg/mL
MIC (E. gallinarum BM4174): 16 µg/mL

O=C(N[C@H](CO)[C@H](O)c1ccc([N+](=O)[O-])cc1)C(Cl)Cl [chloramphenicol]
change of minimal inhibitory concentration (MIC) (E. faecalis JH2-2): two-fold reduction
